Reference: patent US8945540B2, “Compositions for enhancing the antibacterial activity of myeloperoxidase and methods of use thereof” (Exoxemis, Inc., priority 2008, dated 2015)
Like-named read-outs stand apart in the source and are kept apart here.

Assays:
Staphylococcus aureus [1] = test: Microbicidal activity of the myeloperoxidase system (p-MPO, glucose oxidase, glucose) with amino acids in the presence of blood, CFU plate counts; synergy determination from these CFU; assay type: cell-based; settings: for Average Viability CFU/ml 60 min / Log Reduction 60 min / Log 10 (CFU + 1) Survivors 60 min: MPO 38 U/ml, GO 33.3 U/ml; for Average Viability CFU/ml 50 min / Log Reduction 50 min: MPO 4.7 U/ml, GO 4.2 U/ml
Experimental: Bacterial suspensions, specifically Staphylococcus aureus in this example, were prepared by the shake flask method to achieve late log to early stationary phase growth. Bacteria were grown 24 hours in trypticase soy broth (TSB) at 35° C. The cultures were centrifuged at 4,000 rpm for 10 minutes and the supernatants removed. The pellet was collected and washed twice with sterile 0.9% normal saline (NS). The washed microorganisms were suspended and diluted with normal saline to a 3 McFarland standard, i.e., approximately 10^9 bacteria colony forming units (CFU) per mL. Actual colony counts are confirmed by serial dilutions (10^−1 to 10^−5 or 10^−6) plated on TSA and incubated overnight at 35° C. To obtain an approximate final working target inoculum of 10^7 CFU/mL, 15 microliters of organisms per mL of final reaction mixture are used.
Glucose oxidase (GO) from Aspergillus Niger was purchased from Biozyme, Inc., UK, Cat #GO3A, 270 U/mg). Porcine Myeloperoxidase (p-MPO) (Exoxemis, Inc., Little Rock, Ark. U.S.A., 375 U/mg). Sterile stock solutions of D-glucose and sodium chloride were prepared and used at a final concentration of 150 mM each. L-Lysine hydrochloride (Spectrum Chemical Cat #L1142) was prepared as a 100 mM stock solution. Catalase (Sigma, Cat #C-40) was prepared as a 1% stock solution in sterile 0.9% normal saline. Blood was collected by venipuncture and used as whole blood within the same day.
Staphylococcus aureus were used to give a final target concentration of 2-3×10^7 CFU (7.4 log 10) per mL and venous whole blood was used to give a final concentration of 3%. Glucose was added to the reaction mixtures to a final concentration of 150 mM, which initiated the microbicidal reaction. The final volume of the reaction mixtures was 1 mL. The reactions were allowed to run from 30 minutes to 2 hours, as needed, at room temperature or at 37° C. in a dry bath. At the specified time points the reaction mixtures were treated with 100 microliters of a catalase solution, containing a minimum of 100 units/μL, to consume remaining peroxide and terminate the oxidative killing. Serial dilution plate counts were performed from the contents of each vial in sterile saline and inoculated onto trypticase soy agar (TSA) for quantitative culture. Plates were then incubated at 37° C. and counts taken at 24 hours. […] The results are shown in Table 1, as the average of 2 replicates.
The amino acids alone, in the absence of MPO were tested to rule out their microbicidal activity. The results are shown in Table 2 to Table 6, as the average of 2 replicates.
The amino acid analogues alone, in the absence of MPO, were tested to rule out their microbicidal activity. […]
The effect of two-way combinations of individual amino acids with L-isoleucine, as potential enhancing agents, for MPO microbicidal action in the presence of blood, was therefore examined by following the procedure of Example 5.
The Actual CFU observed for the pair is then divided by the Predicted CFU and multiplied by 100 to calculate the % of Predicted value. This value is then to be compared to the threshold value, discussed in the next section, to determine whether the pair are synergistic, antagonistic, or additive.
Calculation of appropriate threshold values for determination of synergism and antagonism was based upon the variability of replicated CFU survivor measures.

Staphylococcus aureus [2] = test: Control: microbicidal activity of the amino acid or analogue alone (no glucose, MPO, glucose oxidase) in the presence of blood; assay type: cell-based; settings: for log reduction at 5000 µM: Staphylococcus aureus, 1 h, read-out: Log Reduction 60 min
Text: As a control to determine the microbicidal activity of the amino acids alone, the foregoing procedure was followed without replication, except in the absence of glucose, MPO, and glucose oxidase.

[3] = MPO 100 μg/mL, AA 20 mM, 30 min
[4] = MPO 100 μg/mL, AA 20 mM, 60 min
[5] = Table 5, amino acid 5 mM (none: 0 mM), blood
[6] = Table 11, single amino acid 2.5 mM, in the presence of blood, 50 min
[7] = Table 19, amino acid (racemic, L- or D-form) 2.5 mM, 50 min
[8] = single amino acid 2.5 mM, blood
[9] = amino acid alone 5 mM, MPO 0, GO 0, no glucose, blood, without replication
[10] = Table 7, amino acid analogue 5 mM, blood
[11] = amino acid analogue alone 5 mM, MPO 0, GO 0, no glucose, blood
[12] = Table 3, amino acid 5 mM (none: 0 mM), blood
[13] = Table 2, amino acid 5 mM (none: 0 mM), blood
[14] = Table 4, amino acid 5 mM (none: 0 mM), blood
[15] = Table 10, single amino acid 2.5 mM, in the presence of blood, 50 min
[16] = Table 13, single amino acid 2.5 mM, in the presence of blood, 50 min

| SMILES | Log 10 (CFU + 1) Survivors (Staphylococcus aureus [1]; MPO 25 μg/mL, AA 5 mM, 30 min) | Log 10 (CFU + 1) Survivors (Staphylococcus aureus [1]; MPO 25 μg/mL, AA 5 mM, 60 min) | Log 10 (CFU + 1) Survivors (Staphylococcus aureus [1]; MPO 25 μg/mL, AA […], 30 min) | Log 10 (CFU + 1) Survivors (Staphylococcus aureus [1]; MPO 25 μg/mL, AA […], 60 min) | Log 10 (CFU + 1) Survivors (Staphylococcus aureus [1]; MPO 100 μg/mL, AA 5 mM, 30 min) | Log 10 (CFU + 1) Survivors (Staphylococcus aureus [1]; MPO 100 μg/mL, AA 5 mM, 60 min) | Log 10 (CFU + 1) Survivors (Staphylococcus aureus [1]; [3]) | Log 10 (CFU + 1) Survivors (Staphylococcus aureus [1]; [4]) | log reduction at 5000 µM (Staphylococcus aureus [2]; [9]) | Average Viability CFU/ml 60 min (Staphylococcus aureus [2]; [9]) [CFU/ml] | Average Viability CFU/ml 60 min (Staphylococcus aureus [1]; [10]) [CFU/ml] | Log Reduction 60 min (Staphylococcus aureus [1]; [10]) | Average Viability CFU/ml 60 min (Staphylococcus aureus [2]; [11]) [CFU/ml] | further results |
| --- | --- | --- | --- | --- | --- | --- | --- | --- | --- | --- | --- | --- | --- | --- |
| CC[C@@H](C)[C@@H](N)C(=O)O [D-Isoleucine] | 0.0 | 0.0 | 6.0 | 1.1 | 0.0 | 0.0 | 0.0 | 0.0 | 0.1 | 21300000 | – | – | – | Average Viability CFU/ml 60 min (Staphylococcus aureus [1]; [5]): 0 CFU/ml; Log Reduction 60 min (Staphylococcus aureus [1]; [5]): 7.4; Average Viability CFU/ml 50 min (Staphylococcus aureus [1]; [6]): 196000 CFU/ml; Log Reduction 50 min (Staphylococcus aureus [1]; [6]): 2.1; Average Viability CFU/ml 50 min (Staphylococcus aureus [1]; [7]): 196000 CFU/ml; Log Reduction 50 min (Staphylococcus aureus [1]; [7]): 2.1; Average Viability CFU/ml 50 min (Staphylococcus aureus [1]; [8]): 196000 CFU/ml; Log Reduction 50 min (Staphylococcus aureus [1]; [8]): 2.1; CFU survivors, amino acid acting separately (Staphylococcus aureus [1]; standard conditions of Example 5 (2.5 μmol/mL; MPO 4.7 U/mL; GO 4.2 U/mL)): 196000 CFU |
| COC(=O)[C@@H](N)Cc1ccc(O)cc1.Cl [L-Tyrosine methyl ester hydrochloride] | – | – | – | – | – | – | – | – | – | – | 87000 | 2.4 | 20900000 | log reduction at 5000 µM (Staphylococcus aureus [2]; [11]): 0 |
| O=C(O)c1cccnc1 [Nicotinic acid] | – | – | – | – | – | – | – | – | 0 | 23200000 | – | – | – | Average Viability CFU/ml 60 min (Staphylococcus aureus [1]; [12]): 4150000 CFU/ml; Log 10 (CFU + 1) Survivors 60 min (Staphylococcus aureus [1]; [12]): 6.6; Log Reduction 60 min (Staphylococcus aureus [1]; [12]): 0.7 |
| CCOC(=O)CC(C)N (centres unmarked) [Ethyl 3-aminobutyrate] | – | – | – | – | – | – | – | – | – | – | 0 | 7.4 | 20900000 | log reduction at 5000 µM (Staphylococcus aureus [2]; [11]): 0 |
| CSCC[C@H](N)C(=O)O [L-Methionine] | – | – | – | – | – | – | – | – | 0.1 | 19800000 | – | – | – | Average Viability CFU/ml 60 min (Staphylococcus aureus [1]; [13]): 6600000 CFU/ml; Log 10 (CFU + 1) Survivors 60 min (Staphylococcus aureus [1]; [13]): 6.8; Log Reduction 60 min (Staphylococcus aureus [1]; [13]): 0.6 |
| CC(CN)C(=O)O (racemic) [DL-3-Aminoisobutyric acid] | – | – | – | – | – | – | – | – | – | – | 0 | 7.4 | 24200000 | Log Reduction 60 min (Staphylococcus aureus [2]; [11]): 0.0 |
| N[C@H](CC(=O)O)C(=O)O [D-Aspartic acid] | – | – | – | – | – | – | – | – | 0.1 | 20900000 | – | – | – | Average Viability CFU/ml 60 min (Staphylococcus aureus [1]; [5]): 570000 CFU/ml; Log Reduction 60 min (Staphylococcus aureus [1]; [5]): 1.6 |
| COC(=O)[C@H](C)N [L-Ala methyl ester, L-Alanine methyl ester] | 7.3 | 0.0 | 7.3 | 0.0 | 0.0 | 0.0 | 0.0 | 0.0 | 0 | 24300000 | – | – | – | Average Viability CFU/ml 60 min (Staphylococcus aureus [1]; [14]): 0 CFU/ml; Log Reduction 60 min (Staphylococcus aureus [1]; [14]): 7.4; Average Viability CFU/ml 50 min (Staphylococcus aureus [1]; [15]): 7250000 CFU/ml; Log Reduction 50 min (Staphylococcus aureus [1]; [15]): 0.5 |
| NC(=O)CC[C@H](N)C(=O)O [L-Glutamine] | 7.3 | 7.1 | 6.8 | 7.0 | 7.2 | 0.0 | 7.0 | 5.2 | 0 | 24100000 | – | – | – | Average Viability CFU/ml 60 min (Staphylococcus aureus [1]; [13]): 286 CFU/ml; Log 10 (CFU + 1) Survivors 60 min (Staphylococcus aureus [1]; [13]): 2.5; Log Reduction 60 min (Staphylococcus aureus [1]; [13]): 4.9; Average Viability CFU/ml 50 min (Staphylococcus aureus [1]; [15]): 14350000 CFU/ml; Log Reduction 50 min (Staphylococcus aureus [1]; [15]): 0.2; Average Viability CFU/ml 50 min (Staphylococcus aureus [1]; [16]): 12550000 CFU/ml; Log Reduction 50 min (Staphylococcus aureus [1]; [16]): 0.3 |
| CCOC(=O)CCN.Cl [Beta-Alanine ethyl ester hydrochloride] | – | – | – | – | – | – | – | – | – | – | 1195000 | 1.3 | 23100000 | log reduction at 5000 µM (Staphylococcus aureus [2]): 0 |
